Literature values, collected in PMC12472391, “Borylated Five-Membered Ring Iminosugars: Synthesis, Spectroscopic Analysis, and Biological Evaluation for Glycosidase Inhibition and Anticancer Properties for Application in Boron Neutron Capture Therapy (BNCT)—Part 1” (Pharmaceuticals, 2025).
Counter-ions that a name gives are not always drawn. Like-named read-outs stand apart in the source and are kept apart here.

Key:
Conditions in all cases: cited from earlier work
[1] = system: α-D-glucosidase (rat intestinal maltase); set-up: method as in PMID 31944194
[2] = system: trehalase (porcine kidney); set-up: method as in PMID 31944194
[3] = target: fruit fly Golgi II α-D-mannosidase; set-up: method as in PMID 29323461
[4] = system: β-D-glucosidase (almond); set-up: method as in PMID 31944194
[5] = system: α-D-mannosidase (lysosomal acidic); set-up: method as in PMID 8457203
[6] = system: α-D-mannosidase (neutral); set-up: method as in PMID 8457203
[7] = system: β-D-mannosidase (snail); set-up: method as in PMID 31944194
[8] = target: T1, α-D-mannosidase (Jack bean) (Canavalia ensiformis, UniProt C0HJB3); set-up: method as in PMID 31944194
T1 construct: purchased Sigma
T1 sequence (C0HJB3 1-981): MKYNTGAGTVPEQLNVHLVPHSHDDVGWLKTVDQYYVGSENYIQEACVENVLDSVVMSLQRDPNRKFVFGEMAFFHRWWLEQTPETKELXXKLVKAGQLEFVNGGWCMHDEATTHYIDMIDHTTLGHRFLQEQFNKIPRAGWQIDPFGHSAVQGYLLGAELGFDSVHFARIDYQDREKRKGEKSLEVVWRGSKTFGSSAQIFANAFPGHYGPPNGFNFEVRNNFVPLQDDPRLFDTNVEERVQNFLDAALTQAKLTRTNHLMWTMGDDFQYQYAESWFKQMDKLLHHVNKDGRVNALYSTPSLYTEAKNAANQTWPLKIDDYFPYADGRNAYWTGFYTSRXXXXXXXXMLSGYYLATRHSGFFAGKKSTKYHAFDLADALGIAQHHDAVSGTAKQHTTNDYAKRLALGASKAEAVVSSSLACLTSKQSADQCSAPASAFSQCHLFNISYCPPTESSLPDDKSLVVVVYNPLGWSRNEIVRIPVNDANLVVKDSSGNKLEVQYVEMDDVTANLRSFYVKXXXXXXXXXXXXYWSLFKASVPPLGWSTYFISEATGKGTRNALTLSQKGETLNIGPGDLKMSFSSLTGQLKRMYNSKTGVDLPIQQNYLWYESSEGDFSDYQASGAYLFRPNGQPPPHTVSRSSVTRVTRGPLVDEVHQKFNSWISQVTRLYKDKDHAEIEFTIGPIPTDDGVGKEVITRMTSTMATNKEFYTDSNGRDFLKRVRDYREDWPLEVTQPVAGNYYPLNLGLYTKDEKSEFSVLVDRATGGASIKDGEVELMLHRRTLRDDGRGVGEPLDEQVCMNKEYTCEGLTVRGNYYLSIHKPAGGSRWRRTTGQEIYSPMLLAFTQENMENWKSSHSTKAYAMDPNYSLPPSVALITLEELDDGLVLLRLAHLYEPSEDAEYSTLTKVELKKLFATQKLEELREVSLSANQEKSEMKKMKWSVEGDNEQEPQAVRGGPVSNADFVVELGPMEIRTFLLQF

[9] = system: amyloglucosidase (A. niger); set-up: method as in PMID 31944194
[10] = system: β-D-glucosidase (bovine liver); set-up: method as in PMID 31944194
[11] = target: T2, β-D-galactosidase (bovine liver) (Bos taurus, UniProt Q58D55); set-up: method as in PMID 31944194
T2 sequence (Q58D55 28-653): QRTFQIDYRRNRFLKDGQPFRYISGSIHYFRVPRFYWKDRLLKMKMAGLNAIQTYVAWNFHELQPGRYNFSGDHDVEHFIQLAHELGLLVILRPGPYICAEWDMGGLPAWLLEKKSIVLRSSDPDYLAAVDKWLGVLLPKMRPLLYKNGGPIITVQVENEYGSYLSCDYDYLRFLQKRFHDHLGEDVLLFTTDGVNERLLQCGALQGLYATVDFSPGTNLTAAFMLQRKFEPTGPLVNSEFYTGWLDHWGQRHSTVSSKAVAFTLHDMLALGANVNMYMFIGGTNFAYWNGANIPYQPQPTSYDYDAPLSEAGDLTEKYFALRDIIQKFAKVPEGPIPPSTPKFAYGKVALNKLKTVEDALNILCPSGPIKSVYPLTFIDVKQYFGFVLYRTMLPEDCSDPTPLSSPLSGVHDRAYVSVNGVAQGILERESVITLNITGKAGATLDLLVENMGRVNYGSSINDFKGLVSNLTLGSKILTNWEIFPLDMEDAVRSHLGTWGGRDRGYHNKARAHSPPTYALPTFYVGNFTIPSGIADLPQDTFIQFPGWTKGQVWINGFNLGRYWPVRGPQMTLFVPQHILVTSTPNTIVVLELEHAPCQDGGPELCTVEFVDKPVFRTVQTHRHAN

[12] = target: β-D-glucosidase (human lysosome) (Homo sapiens, UniProt P04062); set-up: method as in PMID 31944194
[13] = system: α-L-rhamnosidase (P. decumbens); set-up: method as in PMID 31944194
[14] = system: α-D-galactosidase (coffee bean); set-up: method as in PMID 31944194
[15] = target: T3, α-D-glucosidase (yeast) (Saccharomyces cerevisiae, UniProt P53341); set-up: method as in PMID 31944194
T3 construct: purchased Sigma

[16] = system: α-D-mannosidase (Golgi II); set-up: method as in PMID 8457203
[17] = system: α-L-fucosidase (bovine kidney); set-up: method as in PMID 31944194
[18] = target: α-D-glucosidase (rice) (Oryza sativa subsp. japonica, UniProt Q653V7); set-up: method as in PMID 31944194
[19] = target: T4, β-D-glucuronidase (E. coli) (Escherichia coli, UniProt P05804); set-up: method as in PMID 31944194
T4 construct: purchased Sigma-Aldrich Co

[20] = target: fruit fly lysosomal acidic α-D-mannosidase; set-up: method as in PMID 29323461
[21] = system: α-D-galactosidase (coffee bean)
[22] = target: T1, α-D-mannosidase (Jack bean)
[23] = target: β-D-galactosidase (E. coli) (Escherichia coli, UniProt P00722)
[24] = system: aldose reductase; set-up: method as in PMID 31557624
[25] = system: α-D-glucosidase; set-up: method as in PMID 31557624
[26] = system: β-D-N-acetylhexosaminidase; set-up: method as in PMID 2706004
[27] = system: α-D-mannosidase (lysosomal acidic); set-up: method as in PMID 2706004
[28] = system: β-D-mannosidase; set-up: method as in PMID 2706004
[29] = system: α-D-mannosidase (Golgi II); set-up: method as in PMID 2706004
[30] = system: α-L-fucosidase; set-up: method as in PMID 2706004

β-D-galactosidase (E. coli), sequence (P00722 2-1024): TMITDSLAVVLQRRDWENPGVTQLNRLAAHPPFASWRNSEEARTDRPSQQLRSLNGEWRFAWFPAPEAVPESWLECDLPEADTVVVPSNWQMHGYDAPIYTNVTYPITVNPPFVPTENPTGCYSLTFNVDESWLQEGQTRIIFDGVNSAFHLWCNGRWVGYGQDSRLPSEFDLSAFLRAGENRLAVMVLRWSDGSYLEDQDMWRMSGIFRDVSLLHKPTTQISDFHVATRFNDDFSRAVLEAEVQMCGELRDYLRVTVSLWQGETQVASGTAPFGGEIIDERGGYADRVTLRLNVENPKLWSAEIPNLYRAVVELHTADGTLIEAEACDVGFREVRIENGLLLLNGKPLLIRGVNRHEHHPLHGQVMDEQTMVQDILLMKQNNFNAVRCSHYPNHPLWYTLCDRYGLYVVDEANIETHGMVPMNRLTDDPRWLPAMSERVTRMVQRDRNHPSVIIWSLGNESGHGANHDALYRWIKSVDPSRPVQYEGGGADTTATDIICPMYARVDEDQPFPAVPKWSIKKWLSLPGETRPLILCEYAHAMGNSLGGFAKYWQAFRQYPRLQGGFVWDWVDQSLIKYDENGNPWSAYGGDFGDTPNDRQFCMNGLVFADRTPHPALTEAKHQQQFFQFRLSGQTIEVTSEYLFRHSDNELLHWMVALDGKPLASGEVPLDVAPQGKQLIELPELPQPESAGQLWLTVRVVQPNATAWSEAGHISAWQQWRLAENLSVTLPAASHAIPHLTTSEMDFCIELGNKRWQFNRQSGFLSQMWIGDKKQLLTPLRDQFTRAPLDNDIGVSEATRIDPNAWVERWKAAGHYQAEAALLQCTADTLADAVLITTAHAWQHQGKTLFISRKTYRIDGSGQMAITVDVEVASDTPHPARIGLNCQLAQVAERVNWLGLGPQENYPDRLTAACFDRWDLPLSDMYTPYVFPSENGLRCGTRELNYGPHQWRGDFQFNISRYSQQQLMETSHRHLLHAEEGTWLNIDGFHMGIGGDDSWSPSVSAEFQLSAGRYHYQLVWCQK
α-D-glucosidase (rice), sequence (Q653V7 34-885): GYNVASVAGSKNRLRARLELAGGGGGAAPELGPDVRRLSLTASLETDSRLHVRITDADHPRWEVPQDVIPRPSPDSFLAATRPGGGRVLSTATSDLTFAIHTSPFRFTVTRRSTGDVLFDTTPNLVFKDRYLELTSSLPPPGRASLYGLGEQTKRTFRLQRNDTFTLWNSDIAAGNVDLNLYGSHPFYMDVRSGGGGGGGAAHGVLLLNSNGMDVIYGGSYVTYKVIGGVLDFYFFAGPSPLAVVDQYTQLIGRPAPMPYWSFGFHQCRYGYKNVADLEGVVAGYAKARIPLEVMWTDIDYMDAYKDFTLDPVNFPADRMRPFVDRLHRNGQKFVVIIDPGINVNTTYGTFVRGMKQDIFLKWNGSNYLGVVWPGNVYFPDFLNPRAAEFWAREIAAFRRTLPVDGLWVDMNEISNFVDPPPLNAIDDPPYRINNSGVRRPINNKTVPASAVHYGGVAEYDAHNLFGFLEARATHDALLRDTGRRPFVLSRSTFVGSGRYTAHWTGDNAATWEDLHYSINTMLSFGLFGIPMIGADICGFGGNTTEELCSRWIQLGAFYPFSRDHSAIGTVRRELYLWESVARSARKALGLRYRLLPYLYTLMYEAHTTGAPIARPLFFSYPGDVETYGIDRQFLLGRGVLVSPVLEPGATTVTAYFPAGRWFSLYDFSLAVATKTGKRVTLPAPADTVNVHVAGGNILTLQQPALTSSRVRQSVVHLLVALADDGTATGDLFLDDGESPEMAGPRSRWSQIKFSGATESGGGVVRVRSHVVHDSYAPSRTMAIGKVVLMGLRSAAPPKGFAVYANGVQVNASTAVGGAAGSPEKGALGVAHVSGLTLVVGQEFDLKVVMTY
T4 sequence (P05804 whole entry): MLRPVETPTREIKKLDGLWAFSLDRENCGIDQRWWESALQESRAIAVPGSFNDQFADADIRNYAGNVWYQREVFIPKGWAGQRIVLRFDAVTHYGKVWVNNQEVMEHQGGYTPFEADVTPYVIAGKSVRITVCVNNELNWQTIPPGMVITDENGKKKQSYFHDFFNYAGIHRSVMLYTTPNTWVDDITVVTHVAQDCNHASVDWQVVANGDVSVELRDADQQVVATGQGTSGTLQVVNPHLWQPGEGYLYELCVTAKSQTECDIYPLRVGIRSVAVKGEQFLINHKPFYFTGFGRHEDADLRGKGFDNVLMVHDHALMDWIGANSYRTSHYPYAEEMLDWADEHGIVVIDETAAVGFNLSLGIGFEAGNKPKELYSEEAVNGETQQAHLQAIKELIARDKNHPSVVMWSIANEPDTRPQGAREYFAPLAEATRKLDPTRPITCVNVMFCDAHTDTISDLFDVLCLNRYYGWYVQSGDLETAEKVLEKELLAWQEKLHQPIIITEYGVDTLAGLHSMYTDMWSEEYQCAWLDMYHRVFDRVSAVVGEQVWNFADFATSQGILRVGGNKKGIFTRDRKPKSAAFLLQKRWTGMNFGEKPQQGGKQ
T3 sequence (P53341 whole entry): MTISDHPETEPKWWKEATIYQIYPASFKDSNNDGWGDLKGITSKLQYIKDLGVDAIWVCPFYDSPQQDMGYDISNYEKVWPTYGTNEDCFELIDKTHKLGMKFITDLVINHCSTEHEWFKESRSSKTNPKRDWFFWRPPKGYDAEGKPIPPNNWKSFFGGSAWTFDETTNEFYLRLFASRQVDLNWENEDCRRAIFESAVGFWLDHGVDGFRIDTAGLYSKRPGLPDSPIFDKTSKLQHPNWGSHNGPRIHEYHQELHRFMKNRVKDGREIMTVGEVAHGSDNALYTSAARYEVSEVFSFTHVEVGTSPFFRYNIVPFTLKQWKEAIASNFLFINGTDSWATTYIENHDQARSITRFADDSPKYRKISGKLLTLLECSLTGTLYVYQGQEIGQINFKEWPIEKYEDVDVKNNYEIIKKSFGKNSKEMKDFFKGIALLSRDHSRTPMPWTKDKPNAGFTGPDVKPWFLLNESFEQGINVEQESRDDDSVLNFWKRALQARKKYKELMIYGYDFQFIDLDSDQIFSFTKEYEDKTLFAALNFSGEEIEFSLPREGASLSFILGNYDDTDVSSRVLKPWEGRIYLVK
β-D-glucosidase (human lysosome), sequence (P04062 40-536): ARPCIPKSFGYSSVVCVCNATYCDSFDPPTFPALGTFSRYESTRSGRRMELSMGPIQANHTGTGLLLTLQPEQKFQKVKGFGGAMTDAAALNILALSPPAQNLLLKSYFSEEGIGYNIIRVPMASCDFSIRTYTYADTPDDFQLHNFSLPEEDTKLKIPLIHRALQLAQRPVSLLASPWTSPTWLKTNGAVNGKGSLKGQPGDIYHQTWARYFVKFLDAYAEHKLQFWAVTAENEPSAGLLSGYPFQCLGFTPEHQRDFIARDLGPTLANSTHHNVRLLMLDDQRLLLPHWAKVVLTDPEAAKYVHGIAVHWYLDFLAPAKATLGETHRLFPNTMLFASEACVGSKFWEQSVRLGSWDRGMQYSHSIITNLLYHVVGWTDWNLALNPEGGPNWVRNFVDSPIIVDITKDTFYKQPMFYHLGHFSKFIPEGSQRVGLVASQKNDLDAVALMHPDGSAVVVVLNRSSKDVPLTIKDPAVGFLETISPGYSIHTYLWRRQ

OC[C@@H](O)[C@@H]1[C@H](O)[C@H](O)CN1Cc1ccccc1 [N-Benzyl-1,4-dideoxy-1,4-imino-D-mannitol.HCl]
α-D-glucosidase (rat intestinal maltase) inhibition [1]: 16.6% | trehalase (porcine kidney) inhibition [2]: 0% | IC50 [3]: 690 µM | β-D-glucosidase (almond) inhibition [4]: 6.1% | α-D-mannosidase lysosomal acidic inhibition [5]: 34% | α-D-mannosidase neutral inhibition [6]: 44% | β-D-mannosidase (snail) inhibition [7]: 4.4% | α-D-mannosidase (Jack bean) inhibition [8]: 27% | amyloglucosidase (A. niger) inhibition [9]: 11.4% | β-D-glucosidase (bovine liver) inhibition [10]: 9.5% | β-D-galactosidase (bovine liver) inhibition [11]: 7.9% | β-D-glucosidase (human lysosome) inhibition [12]: 4.7% | α-L-rhamnosidase (P. decumbens) inhibition [13]: 11.5% | α-D-galactosidase (coffee bean) inhibition [14]: 8.8% | α-D-glucosidase (yeast) inhibition [15]: 6.5% | α-D-mannosidase Golgi II inhibition [16]: 72% | α-L-fucosidase (bovine kidney) inhibition [17]: 8.4% | α-D-glucosidase (rice) inhibition [18]: 34.2% | β-D-glucuronidase (E. coli) inhibition [19]: 9.8% | IC50 [20]: 1500 µM

OC[C@@H](O)[C@H]1[C@H](O)[C@H](O)CN1Cc1ccccc1 [N-Benzyl-1,4-dideoxy-1,4-imino-D-talitol.HCl]
α-D-galactosidase (coffee bean) inhibition [21]: little inhibition | α-D-mannosidase (Jack bean) inhibition [22]: little inhibition | β-D-galactosidase (E. coli) inhibition [23]: little inhibition

OC[C@@H](O)[C@H]1[C@H](O)[C@@H](O)CN1Cc1ccccc1 [N-Benzyl-1,4-dideoxy-1,4-imino-D-galactitol]
aldose reductase inhibition [24]: 32.6% | α-D-glucosidase inhibition [25]: 93.2% | IC50 ([25]; read-out: IC50 towards α-D-glucosidase): 40.6 µM

OC[C@@H](O)[C@@H]1[C@@H](O)[C@@H](O)CN1Cc1ccccc1 [N-Benzyl-1,4-dideoxy-1,4-imino-D-allitol]
β-D-N-acetylhexosaminidase inhibition [26]: 35% | α-D-mannosidase lysosomal acidic inhibition [27]: 7% | β-D-mannosidase inhibition [28]: 0% | α-D-mannosidase Golgi II inhibition [29]: 11% | α-L-fucosidase inhibition [30]: α-L-fucosidase (76%)

Cl.OC[C@@H](O)[C@H]1[C@H](O)[C@H](O)CN1Cc1ccccc1B(O)O [N-(2-Methylphenylboronic acid)-1,4-dideoxy-1,4-imino-D-talitol.HCl]
β-D-galactosidase (E. coli) inhibition [23]: β-D-galactosidase (E. coli) (44–55%)
